A short description of series [1]: Individual component solubilities in t-butanol/water solutions (HPLC). The note with it: about 37° C.; for solubility at 30 min: 37 °C, thermodynamic from solid.
Method: (§1) Aliquots of each lipid and peptide were accurately weighed into 1.5 ml Eppendorf tubes. […] To each tube 0.2 ml of solvent was added. Each tube was vortexed and then bath sonicated for several minutes to facilitate dissolution. Samples were then placed in a 37° C. bath for approximately 30 minutes and then removed and placed on the counter for up to 30 minutes. […] Three independent Eppendorf tubes were prepared and tested for each solute-solvent combination. Visual observations were made of each tube as to whether they appeared a) clear (i.e., apparently fully soluble), b) to contain non-dissolved material, or c) indeterminate. Small aliquots of each tube were then taken, diluted in the HPLC running buffer, and analyzed by HPLC. HPLC was performed using a CIS column by established methods.
Series [2] is described as follows: Achievable dissolution concentrations of components in 60% TBA cosolvent without NaCl. The conditions noted are these: for Measured Concentration, 1: replicate 1; for Measured Concentration, 2: replicate 2; for Measured Concentration, 3: replicate 3; for Measured Concentration, AVG: room temperature, individual component.
The nature of the next series: physchem. The note with it: 37 °C, aqueous with cosolvent or surfactant or cyclodextrin, thermodynamic from solid.
[3] abbreviates: 50% t-butanol in water, aqueous with cosolvent or surfactant or cyclodextrin.
Where [4] appears, read: 80% t-butanol in water, organic solvent or mixture.
[5] abbreviates: 90% t-butanol in water, organic solvent or mixture.
The mark [6] stands for this setting: 95% t-butanol in water, organic solvent or mixture.
[7] abbreviates: 100% t-butanol, organic solvent or mixture.

≈ marks a conversion by molar mass, not a printed value. Where no end group is shown, it is not given here. Some results are limits rather than exact numbers.

Broadly, the solubility is the dissolved amount per volume that the medium holds. For orientation: Solubility means how much of the substance goes into solution per volume. Low values mean little dissolved substance, high ones much dissolved substance.

Method for physchem: as §1

Turning to `CCCCCCCCCCCCCCCCO` [CA, cetyl alcohol], the solubility at 30 min was 14 mg/mL (≈ 57.7 mM) in series [1] (setting [3]); > 224 mg/mL in series [1] (setting [4]); > 229 mg/mL in series [1] (setting [5]); > 251 mg/mL in series [1] (setting [6]); > 270 mg/mL in series [1] (setting [7]).

On to `CCCCCCCCCCCCCCCC(=O)OC[C@H](COP(=O)([O-])OCC[N+](C)(C)C)OC(=O)CCCCCCCCCCCCCCC` [DPPC, dipalmitoyl phosphatidylcholine], for which the “Measured Concentration, 1” value in series [2] is 34.8 mg/mL. Further, the “Measured Concentration, 2” value in series [2] worked out at 35.0 mg/mL. Also, the “Measured Concentration, 3” value in series [2] stood at 35.2 mg/mL. Moreover, the “Measured Concentration, AVG” value in series [2] worked out at 35.0 mg/mL. Besides, the solubility at 30 min in series [1] (setting [3]) is > 49 mg/mL; in series [1] (setting [4]), > 133 mg/mL; in series [1] (setting [5]), > 145 mg/mL; in series [1] (setting [6]) it was > 150 mg/mL; in series [1] (setting [7]), > 150 mg/mL.

Consider `CCCCCCCC/C=C\CCCCCCCC(=O)O[C@H](COC(=O)CCCCCCCCCCCCCCC)COP(=O)(O)OCC(O)CO` (some centres unmarked) [POPG, palmitoyloleoyl phosphatidylglycerol], for which, in series [2], the “Measured Concentration, 1” value was determined as 298.4 mg/mL. The “Measured Concentration, 2” value in series [2] turned out to be 283.7 mg/mL. Moreover, the “Measured Concentration, 3” value in series [2] turned out to be 290.6 mg/mL. Further, the “Measured Concentration, AVG” value in series [2] amounted to 290.9 mg/mL. The Solubility in series [1] (50% t-butanol in water) is >47 mg/mL; in series [1] (80% t-butanol in water), >119 mg/mL; in series [1] (90% t-butanol in water), >160 mg/mL; in series [1] (95% t-butanol in water), 34 mg/mL (≈ 45.4 mM); in series [1] (97.5% t-butanol in water) it was 20 mg/mL (≈ 26.7 mM); in series [1] (99% t-butanol in water), <5 mg/mL. The Solubility in series [1] (100% t-butanol) is <5 mg/mL.

Turning to KLLLLKLLLLKLLLLKLLLLK [KL4], in the series “physchem”, the Solubility was > 67 mg/mL.

(Values after patent publication US7582312B2, “Methods to produce lung surfactant formulations via lyophilization and formulations and uses thereof” (Discovery Laboratories, Inc., priority 2004, dated 2009).)
